The record followed here is US5869494A, “Uses for barbituric acid analogs” (priority 1997, dated 1999).

This experiment relates to Daudi human lymphoma cells. Description: Cytotoxicity for lymphoma cells (Daudi). In kind it is cell-based. Particulars: Homo sapiens, Daudi, 150 μg/ml, time not stated; read-out: cell kill. The method, then:
In the following examples, tumor cells were treated with varying concentrations of compounds C1, C2, C4 or C5 dissolved in absolute ethanol. To limit any non-specific toxicity, the final concentration of ethanol was not allowed to exceed 0.5%. Stock concentrations of 5 mg/ml or 20 mg/ml were used. Viability of cells was determined in some studies by the trypan blue dye exclusion method. In other studies, cell viability/proliferation activity was determined by MTT assay by using a kit obtained from Promega, (Promega Corp., Madison, Wis. 53711). For this assay, a 100 μl cell suspension containing 5-10^3 monolayer cells or 1×10^5 suspension cells was placed in the wells of a 96-well microtiter plate. After overnight incubation, cells were treated with different concentrations of the test compound. Control wells received vehicle only. After 24, 48, 72 or 96 h of incubation, 50 μl of MTT dye solution was added. After 4 h of incubation at 37° C., 100 μl of solubilization/stop solution was added. After another h of incubation, cells were mixed using a multi-channel pipet and the absorption of the dye color was recorded at 570 nm using a plate reading absorption spectrophotometer.
The viability of the cells was
Compounds C4 and C5 were also tested for toxicity against human lymphoma Daudi cells.

The structures appear in SMILES notation.

Consider `O=C1CC(=O)NC(=S)N1` [Compound C4], for which the cytotoxicity at 150 µg/mL is < 20%. In the case of `CN1C(=O)CC(=O)N(C)C1=S` [Compound C5], the cytotoxicity at 150 µg/mL is < 20%.
